# Measurements taken from patent US4966914A, “Oculoselective beta-blockers as antiglaucoma agents” (E. I. Du Pont de Nemours and Company, priority 1988, dated 1990).
# Read-outs that look alike come from different tables or passages of the source.
# Columns and labels:
# beta-blocking effects = assay: In vivo beta-blocking potency and duration of action (DOA); conditions: Tables 2 and 4
# Description: (§1) The in vitro potency (pA2), in vivo potency and duration of action (DOA) of the compounds of the present invention are recorded in Tables 2 to 4. These pharmacological activities were determined using the methods described in U.S. patent 4,582,855 issued Apr.
# ATRIA = biological target: T1, ATRIA (Cavia porcellus, UniProt H0W3H1); assay: In vitro potency (pA2), beta-blocking, atria; format: cell-based
# T1 construct: ATRIA; from tissue
# T1 sequence (H0W3H1 1-470): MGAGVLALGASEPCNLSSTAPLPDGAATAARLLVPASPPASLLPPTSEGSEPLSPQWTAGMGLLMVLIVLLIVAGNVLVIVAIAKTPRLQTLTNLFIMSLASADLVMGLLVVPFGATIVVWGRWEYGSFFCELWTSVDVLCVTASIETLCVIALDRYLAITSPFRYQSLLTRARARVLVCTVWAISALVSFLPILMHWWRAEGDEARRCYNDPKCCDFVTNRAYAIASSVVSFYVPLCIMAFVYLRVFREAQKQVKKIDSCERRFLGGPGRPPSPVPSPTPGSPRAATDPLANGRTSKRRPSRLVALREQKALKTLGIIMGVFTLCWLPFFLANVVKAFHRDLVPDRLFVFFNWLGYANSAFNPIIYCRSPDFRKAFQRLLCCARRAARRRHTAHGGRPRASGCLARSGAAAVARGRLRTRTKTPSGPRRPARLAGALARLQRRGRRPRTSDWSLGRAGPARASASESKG
# Description: as §1
# [1] = Table 3, atria, read-out: pA2 ATRIA (converted)
# [2] = Tables 2 and 4, read-out: In-vitro potency pA2 (converted)
Kb (ATRIA; [1]),Kb (ATRIA; [2]),SMILES,DOA (duration of action) (beta-blocking effects)
–,–,CCOc1cc(O)c(O)cc1C(=O)OCC(O)CNC(C)(C)CNC(=O)C(C)C (stereo not shown) [OEt],22 min
5.01 nM,–,Cc1cc(O)c(O)cc1C(=O)OCC(O)CNC(C)(C)CNC(=O)C1CCC1 (stereo not shown),–
–,–,COc1cc(O)c(O)cc1C(=O)OCC(O)CNC(C)(C)CNC(=O)C(C)C (stereo not shown) [OMe],30 min
–,2 nM,Cc1cc(O)c(O)cc1C(=O)OCC(O)CNC(C)(C)CNC(=O)N1CCOCC1 (stereo not shown),60 min
1.26 nM,–,CC(C)(CNC(=O)C1CCOC1)NCC(O)COC(=O)c1ccc(O)c(O)c1 (stereo not shown),–
–,1.58 nM,Cc1cc(O)c(O)cc1C(=O)OCC(O)CNC(C)(C)CNC(=O)C1CCOC1 (stereo not shown) [drawing 25],49 min
398 nM,–,COc1ccccc1C(=O)NCC(C)(C)NCC(O)COC(=O)c1cc(O)c(O)cc1C (stereo not shown),–
20 nM,–,CCOc1cc(O)c(O)cc1C(=O)OCC(O)CNC(C)(C)CNC(=O)C(C)C (stereo not shown) [drawing 32],–
100 nM,–,Cc1cc(O)c(O)cc1C(=O)OCC(O)CNC(C)(C)CNC(=O)c1ccccc1F (stereo not shown),–
25.1 nM,–,COc1cc(O)c(O)cc1C(=O)OCC(O)CNC(C)(C)CNC(=O)C1CCCCC1 (stereo not shown),–
25.1 nM,–,Cc1cc(O)c(O)cc1C(=O)OCC(O)CNC(C)(C)CNC(=O)c1ccoc1 (stereo not shown),–
6.31 nM,–,CC(C)(CNC(=O)C1CCCCC1)NCC(O)COC(=O)c1ccc(O)c(O)c1 (stereo not shown),–
1.26 nM,–,Cc1cc(O)c(O)cc1C(=O)OCC(O)CNC(C)(C)CNC(N)=O (stereo not shown) [Me NH2],–
10 nM,–,CCC(=O)NCC(C)(C)NCC(O)COC(=O)c1cc(O)c(O)cc1C (stereo not shown),–
